Data published in patent US10227310B2, “Ghrelin 0-acyl transferase inhibitors” (Eli Lilly and Company, priority 2015, dated 2019).
Blank lines part the entries; values can stand above or below the compound they belong to.

How the values were obtained:
[1] = biological target: GOAT enzyme (Mus musculus (Mouse), UniProt P0C7A3); experiment: In vivo dose dependent 3 day BID study for GOAT inhibitor (plasma AG, UAG by ELISA); parameters: species or system male C57BL/6 mice; settings: mice; for decrease of plasma AG / increase of UAG / reduction in AG to total ghrelin ratio: 3 days; for decrease of plasma AG / increase of UAG: vs vehicle; for reduction in AG to total ghrelin ratio: vs vehicle-treated control animals; for AG (% of control) / AG/Total-ghrelin (% of vehicle control) / UAG (% of vehicle control): plasma
Chain of GOAT enzyme (P0C7A3 whole entry): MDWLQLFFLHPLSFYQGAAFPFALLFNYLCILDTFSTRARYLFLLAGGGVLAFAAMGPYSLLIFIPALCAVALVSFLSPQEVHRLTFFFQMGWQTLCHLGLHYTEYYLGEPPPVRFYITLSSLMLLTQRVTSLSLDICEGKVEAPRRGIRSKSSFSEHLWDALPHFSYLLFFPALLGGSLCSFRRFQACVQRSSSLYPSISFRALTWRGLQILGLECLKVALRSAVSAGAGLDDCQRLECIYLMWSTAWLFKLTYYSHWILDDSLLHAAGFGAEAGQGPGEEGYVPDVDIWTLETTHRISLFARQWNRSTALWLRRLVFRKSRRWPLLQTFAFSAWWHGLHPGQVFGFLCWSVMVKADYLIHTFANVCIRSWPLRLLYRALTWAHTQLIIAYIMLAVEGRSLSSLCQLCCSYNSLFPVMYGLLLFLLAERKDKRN
Method: Comparing the change in the ratio of AG to total ghrelin in the compound treated group and that of the vehicle treated group reflects the degree of GOAT enzyme inhibition in vivo, due to the dynamic processing of UAG to AG by the GOAT enzyme. In the in vivo pharmacodynamic studies herein, the levels of AG and UAG in plasma and stomach in the vehicle and compound treated groups are measured by ELISA specifically to these two analytes. The total ghrelin level of each sample is computed as the sum of AG and UAG by these ELISA measurements. The ratio of AG to total ghrelin is defined by the level of AG in each sample divided by the level of total ghrelin in the same sample. The levels of AG, UAG and ratio of AG to total ghrelin in the vehicle treated group is computed and set as 100%. The relative change of these parameters in the compound treated group is then computed to determine the effectiveness of the test compound.
Purchase male C57BL/6 mice from Harlan (Indianapolis, Ind.) at 9 weeks of age. House the mice individually in a temperature-controlled (24° C.) facility with a 12 h light/dark cycle (lights on 2200 h), and allow free access to a standard rodent chow (diet 2014, Harlan) and water. Typically, use the mice when they are 10-13 weeks of age at the time of the study. On day 0 of the experiment, randomize the mice into treatment groups (N=7/group) so each group has similar mean body weights. On day 1 and day 2, treat the animals with vehicle (1% hydroxyethylcellulose, 0.25% TWEEN™ 80, 0.05% antifoam) or test compound prepared in the vehicle as suspension at various dosages by oral gavage at 7 am and 7 pm. On day 3, fast the animals, move them into clean cages and dose with vehicle or the test compound again at 8 am by oral gavage. That same day at 1 pm, sacrifice the animals by decapitation to collect blood. For details of blood collection and plasma treatments see Blood collection and Extraction of Ghrelin from Plasma section below.
Collect approximately 600 μL blood into a pre-weighed EDTA tube containing 600 μL (defined as Vpreservative) freshly-prepared preservative (4 mM PEFABLOC® [4-(2-aminoethyl) benzenesulfonyl fluoride hydrochloride], 72 mM NaCl, 58 mM NaF, 0.032 N hydrochloric acid, pH 3.0) and mix immediately. Weigh the tube again and keep on ice. To accurately determine the exact blood volume of each sample using this blood collection procedure, the weight of the blood for each mouse is computed using the following equation: Weight of Blood=(Weight of the tube containing Blood+preservative)−(Weight of the tube containing preservative) Blood volume(Vblood)=(Weight of blood)/1.06
Within 15 minutes after the blood collection, samples are centrifuged at 5000 rpm at 4° C. for 8 min. Remove plasma (650 μL) to a 5 mL glass tube containing 1 N hydrochloric acid (65 μL), mix and keep on ice.
AG and UAG are extracted from plasma using SEP-PAK® C18 column to remove interference prior to performing the ELISA. The solid phase extraction of AG and UAG peptides by SEP-PAK® C18 columns can be performed on a vacuum manifold (Waters Corp) or using a peristaltic pump. The sample SEP-PAK® column extraction procedure is independently applied to the plasma sample obtained from each individual mouse. The general extraction protocol is described as follows.
All solutions used for the entire protocol of the SEP-PAK® column extraction should be at ice cold condition. Wet SEP-PAK®_columns (WAT054960, Waters Corp, Milford Mass.) with 99.9% ACN/0.1% TFA (1 mL of solution of 100 mL ACN/0.1 mL TFA). […] Once liquid is removed from the column, stop the pressure. Equilibrate the columns with 3% ACN/0.1% TFA (1 mL of 97 mL water, 3 mL ACN, 0.1 mL TFA). […] Dilute approximately 650 μL acidified plasma (defined as Vplasma added to column) to 1.4 mL ice cold 0.1% TFA. Load all diluted acidified plasma from the previous step onto the columns. […]

[2] = biological target: human GOAT (Homo sapiens (Human), UniProt Q96T53); experiment: In vitro cell free human GOAT enzymatic assay; type: biochemical; settings: cell free human GOAT enzyme, ELISA readout of acyl-ghrelin
Chain of human GOAT (Q96T53 whole entry): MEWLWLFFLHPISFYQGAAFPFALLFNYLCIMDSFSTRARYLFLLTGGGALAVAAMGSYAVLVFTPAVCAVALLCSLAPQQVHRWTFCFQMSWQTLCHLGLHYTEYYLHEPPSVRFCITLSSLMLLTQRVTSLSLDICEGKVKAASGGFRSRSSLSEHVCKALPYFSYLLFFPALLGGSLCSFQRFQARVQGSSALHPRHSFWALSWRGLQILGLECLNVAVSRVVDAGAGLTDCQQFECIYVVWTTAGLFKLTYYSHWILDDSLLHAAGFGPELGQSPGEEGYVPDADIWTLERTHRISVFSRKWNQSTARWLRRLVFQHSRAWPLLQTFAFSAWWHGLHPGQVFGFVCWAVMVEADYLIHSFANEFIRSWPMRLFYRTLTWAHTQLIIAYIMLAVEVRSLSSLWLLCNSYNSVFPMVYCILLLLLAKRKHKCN
Method: Human GOAT gene (Accession number: NM_001100916) is subcloned to pAN51 baculoviral expression vector. Baculovirus stock is prepared following the Bac-to-Bac Protocol provided by the vendor, Invitrogen, California, USA. Five mililiters of human GOAT baculoviral stock are added to 500 mL Sf9 cells in HyQ SFX-Insect™ media (HyClone catalog number SH30278.02) at the density of 1×10^6 cells per milliliter in a 2 L Erlenmeyer flask. The flask with human GOAT gene infected Sf9 cells is put on a plate shaker at 120 rpm at 28° C. for 48 h. After 48 h incubation, cells are centrifuged at 1,000×g for 10 min at 4° C. The cell pellets are collected and stored at −80° C. in a freezer until ready for further processing.
Preparation of Microsomal Membrane of GOAT Enzyme for the Enzymatic Assay:
One gram cell pellets are suspended in 9 mL chilled homogenization buffer (50 mM Tris-HCl, 250 mM sucrose, adjusted to pH 7.5, and sterile filtered through 0.2 μm Millipore filter). The cell suspension is transferred to a Dounce glass homogenizer. Cell pellets are homogenized with 40 strokes on ice. The homogenate is centrifuged at 3,000 rpm in a Beckman swing bucket rotor at 4° C. for 10 min to remove unbroken cells. The supernatant is collected and centrifuged at 40,000×g for 1 h at 4° C. The resulting membrane pellet is suspended in the homogenization buffer using a Dounce glass homogenizer and stored at −20° C. in the freezer for the assay. For long term storage of the human GOAT enzyme membrane preparation, the suspended membrane is stored in a −80° C. freezer.
Human GOAT Enzymatic Assay Protocol:
Prepare test compounds in DMSO to make up a 0.2 mM stock solution. Serially dilute the stock solution in DMSO for ten concentrations with final compound concentrations ranging from 10 μM to 0.5 nM in a 96-well round-bottom plate. Prepare enzyme and substrate solutions in assay buffer (0.02% TWEEN™-20 in 50 mM Tris, pH 7.5 containing 250 mM sucrose, 1 mg/mL BSA and 10 mM EDTA). Add diluted compound (1 μL) to each well of row A to N of a corresponding low protein binding 384 well plate. […] Incubate the mixture for 1 h at RT on a gently rotating oscillator. Add 4 M guanidine hydrochloride (20 μL) to all wells, mix, and incubate for 3 h to stop the reaction.
Aspirate the blocking buffer from ELISA plate and add blocking buffer (23 μL) to columns 1-24, rows A-N. Reserve rows O and P for the acylghrelin standard curve. Add the reaction mixture (2 μL) to the ELISA plates. […] Incubate the reaction mixture or biotin-labeled AG standard in the ELISA plate overnight at 4° C. The following day, wash the plate 3× with wash buffer (0.1% TWEEN™-20/PBS, 100 μL per well in each wash cycle). […] Wash the plate 3× with the wash buffer, similarly to the previous step. Add Protein G-HRP (25 μL) (Southern Biotech) diluted 3,000× in blocking buffer and incubate 1 h at RT. Wash the late 3× with wash buffer, as in the previous steps. Add TMB reagent (25 μL) (Kirkegaard & Perry Laboratories, Inc.) to each well and let develop for 20 min and stop with 1 M phosphoric acid (25 μL per well). Read plates at 450 nm using an ENVISION® Multilabel plate reader. AG levels are calculated versus a fitted standard curve and percent inhibition calculated.

SMILES: COC(=O)N[C@@H](C)C(=O)N1CCC(CCc2c(N)nc(C)nc2Cl)CC1 [Example 71, Methyl N-[(1S)-2-[4-[2-(4-amino-6-chloro-2-methyl-pyrimidin-5-yl)ethyl]-1-piperidyl]-1-methyl-2-oxo-ethyl]carbamate]
decrease of plasma AG ([1]; 0.3 mg/kg): 13% | increase of UAG ([1]; 0.3 mg/kg): 2.87 fold | reduction in AG to total ghrelin ratio ([1]; 0.3 mg/kg): 59% | decrease of plasma AG ([1]; 1 mg/kg): 37% | increase of UAG ([1]; 1 mg/kg): 3.44 fold | reduction in AG to total ghrelin ratio ([1]; 1 mg/kg): 73% | decrease of plasma AG ([1]; 3 mg/kg): 66% | increase of UAG ([1]; 3 mg/kg): 2.90 fold | reduction in AG to total ghrelin ratio ([1]; 3 mg/kg): 82% | AG (% of control) ([1]; 0.3 mg/kg oral BID 3 days): 87 ± 18 (n = 7) % of control | AG/Total-ghrelin (% of vehicle control) ([1]; 0.3 mg/kg oral BID 3 days): 41 ± 3 (n = 7) % of vehicle control | UAG (% of vehicle control) ([1]; 0.3 mg/kg oral BID 3 days): 287 ± 43 (n = 7) % of vehicle control | AG (% of control) ([1]; 1 mg/kg oral BID 3 days): 63 ± 15 (n = 7) % of control | AG/Total-ghrelin (% of vehicle control) ([1]; 1 mg/kg oral BID 3 days): 27 ± 2 (n = 7) % of vehicle control | UAG (% of vehicle control) ([1]; 1 mg/kg oral BID 3 days): 344 ± 63 (n = 7) % of vehicle control | AG (% of control) ([1]; 3 mg/kg oral BID 3 days): 34 ± 5 (n = 7) % of control | AG/Total-ghrelin (% of vehicle control) ([1]; 3 mg/kg oral BID 3 days): 18 ± 1 (n = 7) % of vehicle control | UAG (% of vehicle control) ([1]; 3 mg/kg oral BID 3 days): 290 ± 30 (n = 7) % of vehicle control | IC50 [2]: 149 ± 46 nM

SMILES: Cc1nc(Cl)nc(N)c1CCC1CCN(C(=O)[C@H](C)NC(=O)c2cn[nH]c2C)CC1 [Example 2, N-[(1S)-2-[4-[2-(4-Amino-2-chloro-6-methyl-pyrimidin-5-yl)ethyl]-1-piperidyl]-1-methyl-2-oxo-ethyl]-5-methyl-1H-pyrazole-4-carboxamide]
IC50 [2]: 54.4 nM

SMILES: Cc1nc(N)c(CCC2CCCN(C(=O)[C@H](C)NC(=O)c3ccncc3)CC2)c(Cl)n1 (stereo partly drawn) [Example 37, N-[(1S)-2-[(4R,S)-4-[2-(4-Amino-6-chloro-2-methyl-pyrimidin-5-yl)ethyl]azepan-1-yl]-1-methyl-2-oxo-ethyl] pyridine-4-carboxamide]
IC50 [2]: 574 nM

Second part, the compound after the results:

decrease of plasma AG ([1]; 0.3 mg/kg): 51% | increase of UAG ([1]; 0.3 mg/kg): 1.61 fold | reduction in AG to total ghrelin ratio ([1]; 0.3 mg/kg): 61% | decrease of plasma AG ([1]; 1 mg/kg): 57% | increase of UAG ([1]; 1 mg/kg): 2.04 fold | reduction in AG to total ghrelin ratio ([1]; 1 mg/kg): 73% | decrease of plasma AG ([1]; 3 mg/kg): 70% | increase of UAG ([1]; 3 mg/kg): 2.00 fold | reduction in AG to total ghrelin ratio ([1]; 3 mg/kg): 81% | AG (% of control) ([1]; 0.3 mg/kg oral BID 3 days): 49 ± 7 (n = 7) % of control | AG/Total-ghrelin (% of vehicle control) ([1]; 0.3 mg/kg oral BID 3 days): 39 ± 2 (n = 7) % of vehicle control | UAG (% of vehicle control) ([1]; 0.3 mg/kg oral BID 3 days): 161 ± 24 (n = 7) % of vehicle control | AG (% of control) ([1]; 1 mg/kg oral BID 3 days): 43 ± 6 (n = 7) % of control | AG/Total-ghrelin (% of vehicle control) ([1]; 1 mg/kg oral BID 3 days): 27 ± 1 (n = 7) % of vehicle control | UAG (% of vehicle control) ([1]; 1 mg/kg oral BID 3 days): 204 ± 24 (n = 7) % of vehicle control | AG (% of control) ([1]; 3 mg/kg oral BID 3 days): 30 ± 4 (n = 7) % of control | AG/Total-ghrelin (% of vehicle control) ([1]; 3 mg/kg oral BID 3 days): 19 ± 1 (n = 7) % of vehicle control | UAG (% of vehicle control) ([1]; 3 mg/kg oral BID 3 days): 200 ± 20 (n = 7) % of vehicle control | IC50 [2]: 96.4 ± 28.3 nM
SMILES: Cc1nc(N)c(CCC2CCN(C(=O)[C@H](C)NC(=O)c3cnc(C)s3)CC2)c(Cl)n1 [Example 42, N-[(1S)-2-[4-[2-(4-Amino-6-chloro-2-methyl-pyrimidin-5-yl)ethyl]-1-piperidyl]-1-methyl-2-oxo-ethyl]-2-methyl-thiazole-5-carboxamide]

decrease of plasma AG ([1]; 0.2 mg/kg): 34% | increase of UAG ([1]; 0.2 mg/kg): 2.13 fold | reduction in AG to total ghrelin ratio ([1]; 0.2 mg/kg): 50% | decrease of plasma AG ([1]; 0.6 mg/kg): 52% | increase of UAG ([1]; 0.6 mg/kg): 2.61 fold | reduction in AG to total ghrelin ratio ([1]; 0.6 mg/kg): 65% | decrease of plasma AG ([1]; 2 mg/kg): 72% | increase of UAG ([1]; 2 mg/kg): 2.92 fold | reduction in AG to total ghrelin ratio ([1]; 2 mg/kg): 79% | decrease of plasma AG ([1]; 6 mg/kg): 79% | increase of UAG ([1]; 6 mg/kg): 3.02 fold | reduction in AG to total ghrelin ratio ([1]; 6 mg/kg): 84% | decrease of plasma AG ([1]; 18 mg/kg): 81% | increase of UAG ([1]; 18 mg/kg): 2.79 fold | reduction in AG to total ghrelin ratio ([1]; 18 mg/kg): 86% | AG (% of control) ([1]; 0.2 mg/kg oral BID 3 days): 66 ± 12 (n = 7) % of control | AG/Total-ghrelin (% of vehicle control) ([1]; 0.2 mg/kg oral BID 3 days): 50 ± 3 (n = 7) % of vehicle control | UAG (% of vehicle control) ([1]; 0.2 mg/kg oral BID 3 days): 213 ± 27 (n = 7) % of vehicle control | AG (% of control) ([1]; 0.6 mg/kg oral BID 3 days): 48 ± 4 (n = 7) % of control | AG/Total-ghrelin (% of vehicle control) ([1]; 0.6 mg/kg oral BID 3 days): 35 ± 1 (n = 7) % of vehicle control | UAG (% of vehicle control) ([1]; 0.6 mg/kg oral BID 3 days): 261 ± 30 (n = 7) % of vehicle control | AG (% of control) ([1]; 2 mg/kg oral BID 3 days): 28 ± 3 (n = 14) % of control | AG/Total-ghrelin (% of vehicle control) ([1]; 2 mg/kg oral BID 3 days): 21 ± 1 (n = 14) % of vehicle control | UAG (% of vehicle control) ([1]; 2 mg/kg oral BID 3 days): 292 ± 43 (n = 14) % of vehicle control | AG (% of control) ([1]; 6 mg/kg oral BID 3 days): 21 ± 3 (n = 7) % of control | AG/Total-ghrelin (% of vehicle control) ([1]; 6 mg/kg oral BID 3 days): 16 ± 1 (n = 7) % of vehicle control | UAG (% of vehicle control) ([1]; 6 mg/kg oral BID 3 days): 302 ± 48 (n = 7) % of vehicle control | AG (% of control) ([1]; 18 mg/kg oral BID 3 days): 19 ± 6 (n = 7) % of control | AG/Total-ghrelin (% of vehicle control) ([1]; 18 mg/kg oral BID 3 days): 14 ± 2 (n = 7) % of vehicle control | UAG (% of vehicle control) ([1]; 18 mg/kg oral BID 3 days): 279 ± 36 (n = 7) % of vehicle control | IC50 [2]: 68.9 ± 23.6 nM
SMILES: Cc1nc(N)c(CCC2CCN(C(=O)[C@H](C)NC(=O)c3ccnn3C)CC2)c(Cl)n1 [Example 66, N-[(1S)-2-[4-[2-(4-Amino-6-chloro-2-methyl-pyrimidin-5-yl)ethyl]-1-piperidyl]-1-methyl-2-oxo-ethyl]-2-methyl-pyrazole-3-carboxamide]
